“And” between values parts separate entries of the source, which are not always exact repeats. Equal entries are not always repeated.
Columns and labels:
CT26.CL25 (LacZ+) = assay: In vitro tracer uptake (gamma counter) in β-galactosidase (LacZ) overexpressing cells; assay type: cell-based; settings: β-galactosidase (LacZ) overexpression model; 1×10^6 cells, 0.74 MBq tracer, 40 min, 37° C.
Protocol: (§1) Cells were cultured in a humidified incubator (Binder, Tuttlingen, Germany) at 37° C. and 5% CO2. Fetal bovine serum (FBS, Sigma of Merck) was heat-inactivated for 30 min at 57° C. for cell culture supplementation. For in vitro uptake experiments, the cells were rinsed with DPBS, harvested with a cell scraper and finally centrifuged. The cell pellet was then washed with DPPS and resuspended in DPBS, before being counted. A suspension of 1×10^6 cells in 1 ml DPBS was incubated with 0.74 MBq of tracer at 37° C. and 5% CO2 for 40 min. After the designated incubation time, the suspension was centrifuged. The cell pellet was transferred into a fresh gamma counter tube (Sarstedt), washed twice with 1 ml DPBS and resuspended in 1 ml DPBS. The uptake was measured with a 2480 Wizard^2 automated gamma counter (Perkin Elmer).
(§2) In vitro experiments were performed by uptake quantification in a gamma-counter. In all experiments, 1 million of each of the cell lines were treated with 20 μCi of tracer. After incubation time of 40 minutes, the cells were centrifuged, the supernatant discarded and the cell pellet resuspended in fresh PBS. The samples were then measured in biodistribution tubes in a gamma counter. The tracers were tested first using a β-galactosidase (LacZ) overexpression model of a colon carcinoma cell line (CT26-CL25) and the wild type (CT26) as control (FIG. 2A). Next, the tracers were tested in a senescent cell model: a liver carcinoma cell line (Amp19) treated with ribosomal checkpoint inhibitor (RCI) (FIGS. 2B and 2C).

HCT116 = assay: In vitro tracer uptake (gamma counter) in HCT116 senescence cell model; assay type: cell-based; settings: 1×10^6 cells, 0.74 MBq tracer, 40 min; for Uptake in % ID per million cells, HCT116 (cntrl): control HCT116 cells; for Uptake in % ID per million cells, HCT116 (sen): senescent HCT116 cells
Protocol: as §1

Amp19 = assay: In vitro tracer uptake (gamma counter) in Amp19 senescence cell model; assay type: cell-based; settings: 1×10^6 cells, 0.74 MBq tracer, 40 min; for Uptake in % ID per million cells, Amp19 (cntrl): control Amp19 cells; for Uptake in % ID per million cells, Amp19 (sen): senescent Amp19 cells (treated with RCI)
Protocol: as §1, §2

CT26 = assay: In vitro tracer uptake (gamma counter) in wild type CT26 control cells; assay type: cell-based; settings: 1×10^6 cells, 0.74 MBq tracer, 40 min, 37° C.
Protocol: as §1, §2

Amp19 tumors [1] = assay: Dynamic PET scans of Amp19 tumor bearing mice; assay type: in vivo
Protocol: (§3) Animal procedures were approved by the local authorities (Regierungspraesidium Tuebingen, Tuebingen, Germany) and conducted according to the German Animal Welfare Act. The mice used were between 6 and 7 weeks of age. Tumors were implanted by injecting 0.5×10^6 cells s.c. into the right flank of SCID beige mice. When most tumors reached 100 mm^3 (˜3 weeks post inoculation), the animals were randomized into two groups. The groups received 25 mg/kg/d CX-5461 (AdooQ BioScience, Irvine, CA, USA) or vehicle [50 mM monosodium phosphate (Sigma of Merck KGaA, Darmstadt, Germany), pH 4.5]i.p. for five consecutive days.
Anatomical imaging was conducted on a 7 Tesla small animal MRI scanner with a rat whole body coil and Paravision® software (Bruker, Billerica, MA, USA). The animals were then transferred to the PET scanner without moving the animal to ensure co-registration. The animals received 12±1 MBq tracer (determined by a CRC 15-R dose calibrator) was injected through a tail vein catheter, which was subsequently flushed with 50 μl heparinized saline solution. The transmission scan using an external ^57Co point source was performed for the attenuation correction. […]
The list mode raw file was histogrammed and reconstructed with OSEM3D/SP-MAP algorithm implemented in Inveon Acquisition Workplace. […] The tracer uptake was calculated as the percentage of the injected dose per cubic centimeter (% ID/cc). […]

Amp19 tumors [2] = assay: Ex vivo autoradiography of Amp19 tumors after tracer administration; assay type: in vivo, mice; settings: cx-treated (senescent) vs non-senescent control Amp19 tumors, FIG. 5
Protocol: as §3
For autoradiography, the tumors were embedded in the optimal cutting temperature compound (Tissue-Tek® O.C.T., Sakura, Alphen aan den Rijn, Netherlands) and frozen at −20° C. in the cryotome (Leica, Wetzlar, Germany). Cryosections (20 μm) were then attached to microscope slides (SuperFrost® Plus, R. Langenbrinck, Emmendingen, Germany). The slides were exposed overnight to a phosphor screen (Molecular Dynamics of GE Healthcare). The screen was then scanned by the phosphorimager (Storm 840, Amersham of GE Healthcare). The signal intensities of sections were normalized to each other based on decay corrected animal receiving dose with the open-source software ImageJ (National Institute of Health, Bethesda, MD, USA). […]

SMILES | Uptake in % ID per million cells, CT26.CL25 (LacZ+) (CT26.CL25 (LacZ+)) | Uptake in % ID per million cells, HCT116 (cntrl) (HCT116) | Uptake in % ID per million cells, HCT116 (sen) (HCT116) | Uptake in % ID per million cells, Amp19 (cntrl) (Amp19) | Uptake in % ID per million cells, Amp19 (sen) (Amp19) | Uptake in % ID per million cells, CT26 (CT26) | Dynamic uptake in tumors (PET) (Amp19 tumors [1]; CX-treated (senescent) vs untreated control Amp19 tumors, tracer i.v., FIG. 4) | Washout of tumor uptake (dynamic PET) (Amp19 tumors [1]; treated and untreated Amp19 tumors, uptake stable, reaches a maximum and plateaus) | Autoradiography signal accumulation in tumors (Amp19 tumors [2])
OC[C@H]1O[C@@H](Oc2cccnc2[18F])[C@H](O)[C@@H](O)[C@H]1O [[^18F]FPyGal, reference compound] | 0.5769 % ID per million cells and 1.117 % ID per million cells | 0.3438 % ID per million cells | 0.1998 % ID per million cells | 0.2657 % ID per million cells | 0.0639 % ID per million cells | – | – | – | –
O=[N+]([O-])c1ccc(OCc2cc(NCCC[18F])ccc2O[C@@H]2O[C@H](CO)[C@H](O)[C@H](O)[C@H]2O)cc1 [[^18F]NO2BGal] | 0.9792 % ID per million cells | 0.5052 % ID per million cells | 0.3026 % ID per million cells | 1.286 % ID per million cells | 0.3245 % ID per million cells | 1.492 % ID per million cells | – | – | –
OC[C@H]1O[C@@H](Oc2cc([18F])ccc2COc2c(F)c(F)cc(F)c2F)[C@H](O)[C@@H](O)[C@H]1O [[^18F]TFPBGal] | 7.514 % ID per million cells | 4.745 % ID per million cells | 2.761 % ID per million cells | 3.641 % ID per million cells | 0.3992 % ID per million cells | 2.444 % ID per million cells | higher in CX-treated (senescent) tumors compared to untreated controls at all time points | no observable washout effect | –
OC[C@H]1O[C@@H](Oc2ccc(NCCC[18F])cc2COc2c(F)c(F)cc(F)c2F)[C@H](O)[C@@H](O)[C@H]1O [[^18F]ADTFPBGal] | 4.515 % ID per million cells | 1.564 % ID per million cells | 0.6573 % ID per million cells | 1.085 % ID per million cells | 0.205 % ID per million cells | 1.403 % ID per million cells | – | – | –
OC[C@H]1O[C@@H](Oc2ccc(N3CCN(CCC[18F])CC3)cc2)[C@H](O)[C@@H](O)[C@H]1O [[^18F]PIPGal] | 0.06898 % ID per million cells | 0.1219 % ID per million cells | 0.09843 % ID per million cells | 0.3165 % ID per million cells | 0.04018 % ID per million cells | 0.3131 % ID per million cells | – | – | High signal accumulation is observed in the cx-treated (senescent) tumors compared to the non-senescent controls

Reference: patent US20260183434A1, “NEW SENESCENCE TRACER GENERATION” (Eberhard Karls Universitaet Tuebingen Medizinische Fakultaet, priority 2023, published 2026)
